These results are taken from PMC3024946, “Hydroxyproline-containing collagen analogs trigger the release and activation of collagen-sequestered proMMP-2 by competition with prodomain-derived peptide P33-42” (Fibrogenesis & Tissue Repair, 2011).

For data set [1], the system named is ProMMP-2. As to the kind of experiment: Solid-phase binding of [125I]-proMMP-2 to immobilized collagens/peptides (microwells). More on the design: species or system human. The following applies: for Binding of [125I]-MMPs: ProMMP-2, 2 ng/well, coated wells, 4°C, 2 h, residual radioactivity, mean ± SD, at least five experiments in triplicate. Here is the method: (§1) Human recombinant proMMPs and in vitro activated MMPs were obtained from Invitek and were labeled with the [^125I]-Bolton-Hunter reagent according to the manufacturer's instructions (PerkinElmer, Rodgau, Germany) before the buffer was exchanged for phosphate-buffered saline (PBS) with 0.05% (vol/vol) Tween 20 by gel filtration as described previously. Specific radioactivity for [^125I]-MMPs was 3-9 × 10^4 cpm/ng. Precipitation with 10% (wt/vol) trichloroacetic acid and 200 μg of BSA recovered 96% to 100% of protein-bound radioactivity. Aliquots of labeled MMPs were frozen and stored at -80°C. The activity and integrity were checked by substrate gel zymography using SDS-PAGE and autoradiography with overnight exposure to Biomax MS film (Kodak, Stuttgart, Germany) (Figure 2A).
(§2) Native human CI, CIII and CVI were purified from skin tissue and placenta. The CI single chains α1(I) and α2(I) were obtained and modified as described previously. To prepare defined fragments, 2 mg of α1(I) were dissolved in 1 ml of 70% (vol/vol) formic acid at room temperature, the tubes were flushed with nitrogen for 10 min, and then 2 mg of CB were added. After incubation for 4 h at 37°C, free CB was neutralized and the samples were lyophilized. The peptides CB3, CB6, CB7 and CB8 were separated from the reaction mixture by gel filtration followed by ion-exchange chromatography. The resulting peptides were characterized by amino acid analysis and SDS-PAGE [45, 46]. The CB peptides had the following melting temperatures: CB3, 23.9°C; CB6, 26.7°C; CB7, 28.1°C; and CB8, 28.0°C [31].
(§3) The following collagen analogs and control peptides were synthesized as described previously: (GPO)10, H-Gly-Cys-Hyp-(Gly-Pro-Hyp)10-Gly-Cys-Hyp-Gly-NH2; (GPP)10, H-Gly-Cys-Pro-(Gly-Pro-Pro)10-Gly-Cys-Pro-Gly-NH2; and GAP, H-Gly-Ala-Cys-(Gly-Ala-Pro)5-Gly-Phe-Hyp-Gly-Glu-Arg-(Gly-Ala-Pro)5-NH2. Peptides (POG)10, (PPG)10 and (POG)5 were purchased from Peptide International (Louisville, KY, USA). Spontaneous triple-helix assembly was approved by polarimetry over a 10-cm path length at 1°C/min in 10 mM phosphate buffer, pH 7.4. At 5 mg/ml, midpoints of melting curves occurred at 82.3 ± 1.4°C for (GPO)10 and at 45.8 ± 0.8°C for (GPP)10. […] Graphs were calculated from the primary data using a custom fitting program written by D.A. Slatter (Department of Biochemistry, University of Cambridge, Cambridge, UK [48]) to model different possible transitions. All collagens, CI derivatives and peptides were stored in stock solutions of 2 mg/ml in 150 mM acetic acid at -20°C.
(§4) ProMMP-2 and proMMP-9 or actMMP-2 and actMMP-9 were bound to nitrocellulose and polystyrene-immobilized native collagens, CI chains, CB peptides or structural analogs. Serial dilutions of collagens or CI derivatives in 150 mM acetic acid were dotted at 3 × 3 μl to a nitrocellulose membrane with high protein-binding capacity (GE Healthcare, Munich, Germany). Air-dried membranes were blocked with PBS and 0.3% (vol/vol) Tween 20 overnight at 4°C, washed three times, and incubated with 1 ng/ml [^125I]-pro- and actMMP-2 and pro- and actMMP-9 in PBS and 0.3% (vol/vol) Tween 20 for 2 h at room temperature. Membranes were washed again and air-dried, and bound MMP was monitored by autoradiography. In parallel, polystyrene microtiter plates (Dynex, Chantilly, VA, USA) were coated with collagen proteins and peptides. Here 2 μg/well or 200 ng/well proteins and peptides or BSA as control were immobilized in 100 μl of 50 mM ammonium bicarbonate buffer, pH 9.6, by overnight incubation at 4°C. Immobilization efficacies were 20% to 45% of total proteins. Wells were washed three times with PBS, and nonspecific binding sites were blocked with PBS and 0.05% (vol/vol) Tween 20 for 1 h at room temperature. All incubation steps were performed with 2 ng of [^125I]-MMPs at 4°C for 2 h. […]

For data set [2], the system named is ProMMP-9. As to the kind of experiment: Solid-phase binding of [125I]-proMMP-9 to immobilized collagens/peptides (microwells). Also noted: species or system human. As to conditions: ProMMP-9, 2 ng/well; coated wells; 4°C, 2 h; residual radioactivity; mean ± SD, at least five experiments in triplicate. How it is done:
as §1, §2, §3, §4

Data set [3] has as its system ActMMP-2. Briefly: Solid-phase binding of [125I]-actMMP-2 to immobilized collagens/peptides (microwells). Also noted: species or system human. As to conditions: for Binding of [125I]-MMPs: ActMMP-2, 2 ng/well, coated wells, 4°C, 2 h, residual radioactivity, mean ± SD, at least five experiments in triplicate. How it is done:
as §1, §2, §3, §4

Data set [4] relates to ActMMP-9. As to the kind of experiment: Solid-phase binding of [125I]-actMMP-9 to immobilized collagens/peptides (microwells). Also noted: species or system human. As to conditions: ActMMP-9, 2 ng/well; coated wells; 4°C, 2 h; residual radioactivity; mean ± SD, at least five experiments in triplicate. How it is done: as §1, §2, §3, §4
Data set [5] concerns gelatinase activity in rat cirrhotic liver. Briefly: In situ zymography of cirrhotic liver, negative controls. The following applies: 10 mM ethylenediaminetetraacetic acid or 1 mM phenanthroline; DQ-gelatine. It is filed as biochemical. How it is done:
As described earlier, in situ zymography was performed with cryostat sections (6 μm) of rat cirrhotic liver. In brief, sections were dried, overlayed with 100 μg/ml DQ-gelatine (λex/em, 495/515 nm; Molecular Probes, Eugene, OR, USA) and 0.5% (wt/vol) low-melt agarose in MMP activity buffer. […] Samples were inserted into coverslips and incubated at 40°C for 1 h before being transferred to room temperature for an additional 2 to 16 h. Hoechst 33342 (Invitrogen, Carlsbad, California, USA) nuclear dye was used for counterstaining. Images were obtained by fluorescence microscopy using a Nikon E800 photodocumentation microscope (Nikon Imaging, Düsseldorf, Germany).

For data set [6], the target named is T1, proMMP-2 / CI (Homo sapiens, UniProt P08253).
T1 construct: prodomain-containing proMMP-2 or proMMP-9; purchased Invitek
T1 sequence (P08253 30-660 limits assumed): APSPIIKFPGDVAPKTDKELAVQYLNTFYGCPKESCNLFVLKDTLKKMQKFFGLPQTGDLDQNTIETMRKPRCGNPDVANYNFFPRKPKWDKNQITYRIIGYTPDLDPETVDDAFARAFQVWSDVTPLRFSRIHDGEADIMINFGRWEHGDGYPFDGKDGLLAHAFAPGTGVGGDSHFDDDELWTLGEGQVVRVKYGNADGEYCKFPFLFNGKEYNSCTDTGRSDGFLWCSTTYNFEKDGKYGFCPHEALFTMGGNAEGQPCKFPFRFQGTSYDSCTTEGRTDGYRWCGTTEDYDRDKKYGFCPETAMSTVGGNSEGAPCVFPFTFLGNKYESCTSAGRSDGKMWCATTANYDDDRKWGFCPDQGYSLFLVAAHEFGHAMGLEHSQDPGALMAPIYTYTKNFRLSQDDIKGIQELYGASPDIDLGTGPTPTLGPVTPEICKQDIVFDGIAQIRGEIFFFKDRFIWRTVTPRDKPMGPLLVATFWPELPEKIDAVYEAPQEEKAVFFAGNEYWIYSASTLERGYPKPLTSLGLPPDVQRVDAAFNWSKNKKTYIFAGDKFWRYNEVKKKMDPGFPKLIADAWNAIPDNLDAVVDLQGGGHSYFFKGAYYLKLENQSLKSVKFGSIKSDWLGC
Briefly: SPR, competition of proMMP-2 binding to CI, MMP activity buffer with Ro 28-2653. The following applies: SPR; MMP activity buffer with Ro 28-2653. How it is done: (§5) Sensor chip preparations and SPR measurements were performed using a BiacoreX device and the Bia-evaluation software (version 3.2; Biacore, Uppsala, Sweden). The pepsin-resistant triple-helical part of human fibrillar CI (100 μg/ml) in 10 mM acetate coupling buffer, pH 4.8, was immobilized to a dextran matrix-sensor chip at a flow rate of 5 μl/min, resulting in 5,500 resonance units from CI covalently linked via its primary amino groups. The control flow cell was prepared using the coupling buffer without CI. Surfaces were activated and blocked as described previously. Immediately after thawing, pro- and actMMP-2 and pro- and actMMP-9 were diluted to 100 to 250 nM in MMP activity buffer or in PBS and 0.05% (vol/vol) Tween 20. For SPR measurements, flow rates were 10 μl/min at 25°C, and equilibrium was typically reached after 30 to 60 s. The effects of (GPO)10, GAP, (POG)5, (GPP)10 and P33-42 on MMP-2 and MMP-9 binding to CI and their enzymatic activity were determined by adding the binding competitors to the (pro- and act)MMP-2 and MMP-9 solution in 10- to 150-fold molar excesses. Effects independent of MMP-2 and MMP-9 activity were monitored in the presence of Ro 28-2653 (1 μM) during SPR analysis. The gelatinase inhibitor Ro 28-2653 was a generous gift from H.-W. Krell (Roche, Grenzach-Wyhlen, Germany). Sensor surfaces were regenerated with 10 mM glycine, pH 2.3, for 1 min between runs, and sensor chips were used up to 25 times. Kinetic parameters were analyzed using the 1:1 binding model with drifting baseline and subtraction of the control flow cell binding from sensorgrams obtained with immobilized CI. Binding constants (Kd) were calculated from the association (ka) and dissociation rates (kd) obtained from individual binding curves at different concentrations. Individual drifts of the resonance signal were fitted locally, and χ^2 values of 0.2% to 1.0% of the maximum resonance value were considered good fits.
In general terms: SPR reads the build-up and loss of mass on a sensor chip optically.

Data set [7] relates to MMPs / CI. As to the kind of experiment: SPR, effect of control peptide on interaction of the MMPs with CI. The format is binding, human. The following applies: linear control peptide, not shown. Here is the method: as §5, with “Immediately after thawing, pro- and actMMP-2 and pro- and actMMP-9 were diluted to 100 to 250 nM in MMP activity buffer or in PBS and 0.05% (vol/vol) Tween 20. For SPR measurements, flow rates were 10 μl/min at 25°C, and equilibrium was typically reached after 30 to 60 s.” left out, “The gelatinase inhibitor Ro 28-2653 was a generous gift from H.-W. Krell (Roche, Grenzach-Wyhlen, Germany). Sensor surfaces were regenerated with 10 mM glycine, pH 2.3, for 1 min between runs, and sensor chips were used up to 25 times.” left out, “Individual drifts of the resonance signal were fitted locally, and χ^2 values of 0.2% to 1.0% of the maximum resonance value were considered good fits.” left out

A short description of data set [8]: Triple-helix melting temperature. The following applies: at 5°C; polarimetry. The format is physicochemical. How it is done: as §2, §3

Take α1(I): α1 chain of collagen type I: the “Binding of [125I]-MMPs” value in data set [1] is 36.0 ± 4.0 % of maximum control; in data set [2], 37.6 ± 0.9 % of maximum control; in data set [3], 19.0 ± 3.0 % of maximum control; in data set [4], 4.7 ± 0.3 % of maximum control. This compound also gave a maximum binding in data set [3] (actMMP-2, text) of 19%.
Turning to `c1cnc2c(c1)ccc1cccnc12` [phenanthroline], in data set [5], the gelatinase activity entry is recorded as “no generation of bright green fluorescence was observed”.
For “H-Gly-Ala-Cys-(Gly-Ala-Pro)5-Gly-Phe-Hyp-Gly-Glu-Arg-(Gly-Ala-Pro)5-NH2 [GAP, linear Gly-Ala-Pro (GAP) control peptide]”, the “Binding of [125I]-MMPs” value in data set [1] is 1.7 ± 1.0 % of maximum control; in data set [2] it was 1.3 ± 0.2 % of maximum control; in data set [3] it was 1.5 ± 0.7 % of maximum control; in data set [4], 0.7 ± 0.2 % of maximum control. For the same compound, the “interaction with control peptides” value in data set [1] (pro- and act-forms of MMP-2 and MMP-9, in words) is given as “only marginal interactions”. Moreover, in data set [6], the “competition with proMMP-2 binding to CI” value is on record as “less efficient”. The “effect on interaction of the MMPs with CI” value in data set [7] is “no effect”. Further, the helicity result in data set [8] is “nonhelical even at 5 °C”.
CVI: native human collagen type VI: the “Binding of [125I]-MMPs” value is recorded as 14.1 ± 1.8 % of maximum control in data set [1], 12.3 ± 0.8 % of maximum control in data set [2], 4.8 ± 0.6 % of maximum control in data set [3] and 2.4 ± 0.1 % of maximum control in data set [4].
As to α2(I): CI single chain α2(I), the “Binding of [125I]-MMPs” value in data set [1] is recorded as 30.2 ± 2.3 % of maximum control; in data set [2], 21.8 ± 1.1 % of maximum control; in data set [3], 10.7 ± 1.8 % of maximum control; in data set [4] it was 2.6 ± 0.2 % of maximum control.
As to `O=C(O)CN(CCN(CC(=O)O)CC(=O)O)CC(=O)O` [ethylenediaminetetraacetic acid], the gelatinase activity entry in data set [5] is “no generation of bright green fluorescence was observed”.
